Earlier results, collected in patent US20220323308A1, “DISSOLVABLE VITAMIN C AND RETINOL FILM” (Mary Kay Inc., priority 2019, published 2022).

Conditions: topical, when properly formulated

enhancement of endogenous ascorbic acid levels in the skin: up to twenty-fold
Compound: O=C1O[C@H]([C@@H](O)CO)C(O)=C1O [ascorbic acid]
